Experimental data: patent publication US8828985B2, “Carbamate and urea inhibitors of 11-beta-hydroxysteroid dehydrogenase 1” (Vitae Pharmaceuticals, Inc., priority 2008, dated 2014)
Read-outs that look alike come from different tables or passages of the source.

How the values were obtained:
human 11β-HSD1 [1] = biological target: T1, human 11β-HSD1 (Homo sapiens, UniProt P28845); conditions: for IC50: read-out: Biological Test Example 2 IC50 Range, microsomes from CHO cells overexpressing human 11β-HSD1, SPA
T1 sequence (P28845 whole entry): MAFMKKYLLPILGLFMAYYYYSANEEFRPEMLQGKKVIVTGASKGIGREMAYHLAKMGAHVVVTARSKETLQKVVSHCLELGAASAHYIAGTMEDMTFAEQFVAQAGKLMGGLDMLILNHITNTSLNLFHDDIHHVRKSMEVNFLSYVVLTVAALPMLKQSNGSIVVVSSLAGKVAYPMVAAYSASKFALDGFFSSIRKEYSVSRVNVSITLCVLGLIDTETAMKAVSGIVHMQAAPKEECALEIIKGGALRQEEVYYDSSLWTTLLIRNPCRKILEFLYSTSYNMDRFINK
Description: (§1) All reactions are carried out at room temperature in 96 well clear flexible PET Microbeta plates (PerkinElmer). […] The reaction is stopped by adding 50 μl of the SPA beads suspension containing 10 μM 18β-glycyrrhetinic acid, 5 mg/ml protein A coated YSi SPA beads (GE Healthcare) and 3.3 μg/ml of anti-cortisol antibody (East Coast Biologics) in Superblock buffer (Bio-Rad). The plates are then shaken for 120 minutes at room temperature, and the SPA signal corresponding to [^3H]cortisol is measured on a Microbeta plate reader.

human 11β-HSD1 [2] = biological target: T1, human 11β-HSD1; experiment: biochemical; conditions: for IC50: Biological Test Example 2 IC50 Range, microsomes from CHO cells overexpressing human 11β-HSD1, SPA; for inhibition at 0.1 µM: read-out: Biological Test Example 2 Average % inhibition at 100 nm, at 100 nm
Description: as §1

| SMILES | Biological Test Example 2 Average % inhibition at 100 nm (human 11β-HSD1 [1]) [%] | IC50 (human 11β-HSD1 [2]) [nM] | also measured |
| --- | --- | --- | --- |
| CC1(NC(=O)OC(C)(C)C)CCN(C(=O)OC2C3CC4CC2CC(C(N)=O)(C4)C3)C1 (single isomer, unassigned) [Example 22 Isomer 2.2, (trans-1-carbamoyl-4-adamantyl) 3-(tert-butoxycarbonylamino)-3-methylpyrrolidine-1-carboxylate] | 82.7 | < 100 |  |
| N#Cc1ccc(N[C@@H]2CCN(C(=O)NC3CC4CCC(C3)N4C(N)=O)C2)nc1 (single isomer, unassigned) [Example 104 Isomer 1] |  |  | Biological Test Example 2 Average % inhibition at 111 nm (human 11β-HSD1 [1]): −6.2%; IC50 (human 11β-HSD1 [1]): > 1000 nM |
| CC(C)(C)OC(=O)N1CCC2CN(C(=O)OC3C4CC5CC3CC(C(N)=O)(C5)C4)CC21 (single isomer, unassigned) [Example 23 Isomer 1, 1-tert-butyl 5-(cis-1-carbamoyl-4-adamantyl)hexahydropyrrolo[3,4-b]pyrrole-1,5-dicarboxylate] | 35.4 | > 100 |  |
| CC(C)COC(=O)NC1CCN(C(=O)OC2C3CC4CC2CC(C(N)=O)(C4)C3)C1 (single isomer, unassigned) [Example 18 Isomer 1, (cis-1-carbamoyl-4-adamantyl) (3R-(isobutoxycarbonylamino)pyrrolidine-1-carboxylate)] | 22.6 | > 100 |  |
| CC(C)(C)OC(=O)NC1(Cc2ccccc2)CCN(C(=O)OC2C3CC4CC2CC(C(N)=O)(C4)C3)C1 (single isomer, unassigned) [Example 29 Isomer 2.2, (trans-1-carbamoyl-4-adamantyl) 3-benzyl-3-(tert-butoxycarbonylamino)pyrrolidine-1-carboxylate] | 89.3 | < 100 |  |
| N#Cc1ccc(N[C@@H]2CCN(C(=O)NC3CC4CCC(C3)N4C(N)=O)C2)nc1 (single isomer, unassigned) [Example 104 Isomer 2] |  |  | Biological Test Example 2 Average % inhibition at 111 nm (human 11β-HSD1 [1]): −6.1%; IC50 (human 11β-HSD1 [1]): > 1000 nM |
| CC(C)(C)OC(=O)NC1(Cc2ccccc2)CCN(C(=O)OC2C3CC4CC2CC(C(N)=O)(C4)C3)C1 (single isomer, unassigned) [Example 29 Isomer 2.1, (trans-1-carbamoyl-4-adamantyl) 3-benzyl-3-(tert-butoxycarbonylamino)pyrrolidine-1-carboxylate] | 96.9 | < 100 |  |
| CC1(NC(=O)OC(C)(C)C)CCN(C(=O)OC2C3CC4CC2CC(C(N)=O)(C4)C3)C1 (single isomer, unassigned) [Example 22 Isomer 1, (cis-1-carbamoyl-4-adamantyl) 3-(tert-butoxycarbonylamino)-3-methylpyrrolidine-1-carboxylate] | 15.7 | > 100 |  |
| CC(C)(C)OC(=O)NC1(Cc2ccccc2)CCN(C(=O)OC2C3CC4CC2CC(C(N)=O)(C4)C3)C1 (single isomer, unassigned) [Example 29 Isomer 2, (trans-1-carbamoyl-4-adamantyl) 3-benzyl-3-(tert-butoxycarbonylamino)pyrrolidine-1-carboxylate] | 90.8 | < 100 |  |
| CC(C)(C)OC(=O)NCC1CN(C(=O)OC2C3CC4CC2CC(C(N)=O)(C4)C3)C1 (single isomer, unassigned) [Example 17 Isomer 2, (trans-1-carbamoyl-4-adamantyl) 3-((tert-butoxycarbonylamino)methyl)azetidine-1-carboxylate] | 92.8 | < 100 |  |
| CC(C)(C)OC(=O)NCC1CN(C(=O)OC2C3CC4CC2CC(C(N)=O)(C4)C3)C1 (single isomer, unassigned) [Example 17 Isomer 1, (cis-1-carbamoyl-4-adamantyl) 3-((tert-butoxycarbonylamino)methyl)azetidine-1-carboxylate] | 22.1 | > 100 |  |
| CC(C)(C)OC(=O)N1CCCC12CCN(C(=O)OC1C3CC4CC1CC(C(N)=O)(C4)C3)C2 (single isomer, unassigned) [Example 30 Isomer 2, 1-tert-butyl 7-(trans-1-carbamoyl-4-adamantyl) 1,7-diazaspiro[4.4]nonane-1,7-dicarboxylate] | 91.3 | < 100 |  |
| CC1(NC(=O)OC(C)(C)C)CCN(C(=O)OC2C3CC4CC2CC(C(N)=O)(C4)C3)C1 (single isomer, unassigned) [Example 22 Isomer 2.1, (trans-1-carbamoyl-4-adamantyl) 3-(tert-butoxycarbonylamino)-3-methylpyrrolidine-1-carboxylate] | 88.5 | < 100 |  |
| CC1(NC(=O)OC(C)(C)C)CCN(C(=O)OC2C3CC4CC2CC(C(N)=O)(C4)C3)C1 (single isomer, unassigned) [Example 22 Isomer 2, (trans-1-carbamoyl-4-adamantyl) 3-(tert-butoxycarbonylamino)-3-methylpyrrolidine-1-carboxylate] | 95.5 | < 100 |  |
| CC(C)(C)OC(=O)N1CCCC12CCN(C(=O)OC1C3CC4CC1CC(C(N)=O)(C4)C3)C2 (single isomer, unassigned) [Example 30 Isomer 1, 1-tert-butyl 7-(cis-1-carbamoyl-4-adamantyl) 1,7-diazaspiro[4.4]nonane-1,7-dicarboxylate] | 15.9 | > 100 |  |
| CC(C)COC(=O)NC1CCN(C(=O)OC2C3CC4CC2CC(C(N)=O)(C4)C3)C1 (single isomer, unassigned) [Example 18 Isomer 2, (trans-1-carbamoyl-4-adamantyl) (3R-(isobutoxycarbonylamino)pyrrolidine-1-carboxylate)] | 95.0 | < 100 |  |

More lines, main results first:

| Biological Test Example 2 Average % inhibition at 100 nm (human 11β-HSD1 [1]) [%] | IC50 (human 11β-HSD1 [2]) [nM] | SMILES | also measured |
| --- | --- | --- | --- |
| 87.4 | < 100 | CC(C)OC(=O)N[C@@H]1CCN(C(=O)OC2C3CC4CC2CC(C(N)=O)(C4)C3)C1 (single isomer, unassigned) [Example 24 Isomer 2] |  |
| 40.8 | < 100 | NC(=O)C12CC3CC(C1)C(OC(=O)N1CC[C@@H](Nc4ncccn4)C1)C(C3)C2 (single isomer, unassigned) [Example 62 Isomer 1] |  |
| 94.4 | < 100 | CC(C)(C)OC(=O)N1CCC2CN(C(=O)OC3C4CC5CC3CC(C(N)=O)(C5)C4)CC21 (single isomer, unassigned) [Example 23 Isomer 2, 1-tert-butyl 5-(trans-1-carbamoyl-4-adamantyl)hexahydropyrrolo[3,4-b]pyrrole-1,5-dicarboxylate] |  |
| 7.15 |  | N#Cc1ccc(N[C@@H]2CCN(C(=O)OC3C4CC5CC3CC(C(=O)NC3CC3)(C5)C4)C2)nc1 (single isomer, unassigned) [Example 118 Isomer 2] | IC50 (human 11β-HSD1 [1]): > 100 nM |
| 17.85 | > 100 | N#Cc1ccc(N[C@@H]2CCN(C(=O)OC3C4CC5CC3CC(C(=O)NC3CCCCC3)(C5)C4)C2)nc1 (single isomer, unassigned) [Example 117 Isomer 1] |  |
| 45.6 | > 100 | NC(=O)C12CC3CC(C1)C(OC(=O)N1CC[C@@H](NC(=O)OCc4ccccc4)C1)C(C3)C2 (single isomer, unassigned) [Example 25 Isomer 1] |  |
| 58.4 | < 100 | CNC(=O)C12CC3CC(C1)C(OC(=O)N1CC[C@@H](Nc4ccc(C#N)cn4)C1)C(C3)C2 (single isomer, unassigned) [Example 114 Isomer 2] |  |
| 2.0 | > 100 | CC(C)OC(=O)N[C@@H]1CCN(C(=O)OC2C3CC4CC2CC(C(N)=O)(C4)C3)C1 (single isomer, unassigned) [Example 24 Isomer 1] |  |
| 91.3 | < 100 | NC(=O)C12CC3CC(C1)C(OC(=O)N1CC[C@@H](NC(=O)OCc4ccccc4)C1)C(C3)C2 (single isomer, unassigned) [Example 25 Isomer 2] |  |
| 11.8 | > 100 | CNC(=O)C12CC3CC(C1)C(OC(=O)N1CC[C@@H](Nc4ccc(C#N)cn4)C1)C(C3)C2 (single isomer, unassigned) [Example 114 Isomer 1] |  |
| 63.1 | < 100 | N#Cc1ccc(N[C@@H]2CCN(C(=O)OC3C4CC5CC3CC(C(=O)NC3CCCCC3)(C5)C4)C2)nc1 (single isomer, unassigned) [Example 117 Isomer 2] |  |
| 78.7 |  | NC(=O)C12CC3CC(C1)C(OC(=O)N1CC[C@@H](Nc4ncccn4)C1)C(C3)C2 (single isomer, unassigned) [Example 62 Isomer 2] | IC50 (human 11β-HSD1 [1]): < 100 nM |
|  | < 100 | N#Cc1cncc(N[C@@H]2CCN(C(=O)O[C@H]3C4CC5CC3C[C@](O)(C5)C4)C2)n1 [Example 81, (R)-(trans-1-hydroxy-4-adamantyl) 3-(6-cyanopyrazin-2-ylamino)pyrrolidine-1-carboxylate] | inhibition at 0.1 µM (human 11β-HSD1 [2]; 1.5 h): 54.4% |
|  | < 100 | N#Cc1cnc(N[C@@H]2CCN(C(=O)O[C@H]3C4CC5C[C@@H]3C[C@](C(N)=O)(C5)C4)C2)s1 [Example 72, (3R) (1-carbamoyl-4-adamantyl) 3-(5-cyanothiazol-2-ylamino)pyrrolidine-1-carboxylate] | inhibition at 0.1 µM (human 11β-HSD1 [2]; 1.5 h): 97.3%; inhibition at 0.111 µM (human 11β-HSD1 [2]; 1.5 h, read-out: Biological Test Example 2 Average % inhibition at 111 nm, at 111 nm): 97.3% |
|  | > 100 | O=C(O)c1cnc(N[C@@H]2CCN(C(=O)O[C@H]3C4CC5CC3C[C@](O)(C5)C4)C2)nc1 [Example 108, 2-((R)-1-((trans-1-hydroxy-4-adamantyloxy)carbonyl)pyrrolidin-3-ylamino)pyrimidine-5-carboxylic acid] | inhibition at 0.1 µM (human 11β-HSD1 [2]; 1.5 h): 14.2% |
